Where two headings read alike, the source gives them in different places.
Target: mu-opioid receptor (MOR) (Homo sapiens (Human), UniProt P35372)
Assay: cell-based
Conditions: combined with a MOR antagonist; for AUC: AUC of [Ca2+]i fluorescence
Description: In an exemplary in vitro screening method for identifying antagonist-to-agonist allosteric modifiers of a MOR, cells that express a MOR are treated with a test compound and a MOR antagonist in a cellular calcium fluorescent assay and fluorescence intensity is then measured to determine whether the MOR is activated. A test compound is identified as an antagonist-to-agonist allosteric modifier of the MOR if the MOR is activated.
EC50 herein refers to the concentration of a compound that induces a response halfway between the baseline and the maximum after a specified exposure time. AUC refers to the area under the response curve, an indication of the compound's capability of activating a MOR when combined with a MOR antagonist.
Human embryonic kidney 293 (HEK-293) cells constitutively expressing MOR (HEK-MOR) and DOR (HEK-DOR) (kindly provided by Dr. Ping-Yee Law, University of Minnesota, USA) were cultured in high-glucose Dulbecco's modified Eagle's medium (DMEM, GIBCO) supplemented with 400 μg/mL G418 (Sigma), 2 mM L-glutamine and P/S/F (100 units/mL penicillin, 100 μg/mL streptomycin, 10% fetal bovine serum). Chinese hamster ovary (CHO)-K1 cells, stably expressing hMOR and Gα15 (CHO-K1/MOR/Gα15), were cultured in F12 medium (GIBCO) supplemented with 10 μg/mL Hygromycin B (Invivogen), 20 μg/mL Zeocin (Invivogen) P/S/F (100 units/mL penicillin, 100 μg/mL streptomycin, 10% fetal bovine serum). The cultures were incubated at 37° C. in a humidified 5% CO2 incubator.
One day before the assay, CORNING® black with clear flat bottom 96-well assay plates were coated with a 0.1 mg/mL Poly-L-Lysine solution. CHO-K1/MOR/Gα15 cells were suspended in the F12 medium and plated at a density of ˜8×10^4 cells/well in 200 μL medium. Cells were incubated in a humidified atmosphere of 10% CO2 at 37° C. overnight so as to reach an 80-90% confluent cell monolayer before assay. At the day of assay, 150 μL medium/well was removed from plate. To each well, 50 μL FLIPR® calcium assay reagent dissolved in 1× assay buffer (HBSS: KCl 5 mM, KH2PO4 0.3 mM, NaCl 138 mM, NaHCO3 4 mM, Na2HPO4 0.3 mM, d-glucose 5.6 mM, with additional 20 mM HEPES and 13 mM CaCl2, pH 7.4), with 2.5 mM probenecid was added and the plate was incubated at 37° C. for 1 h. Compounds and other reagents were dissolved in the assay buffer. Using a FlexStationIII (Molecular Devices Corp.), the [Ca^2+]i fluorescence increases after robotic injections of compounds or other reagents were monitored every 1.52 s interval with excitation wavelength at 485 nm and with emission wavelength at 525 nm. The [Ca^2+]i fluorescence was measured up to 90 s after agonist injection.
A CHO-K1 cell line, expressing a MOR and Gα15 (GenScript), was used to set up a sensitive high-throughput screen (HTS) system. In a FLIPR® calcium assay using CHO-K1/MOR/Gα15 cells, activation of MOR elicits an intracellular calcium release leading to an increase in the relative fluorescence units (FRU). […] The HTS was performed in the absence or presence of an opioid antagonist, naloxone (25 nM), to identify antagonist to agonist allosteric modifiers (AAM).
A CHO-K1 cell line, expressing a MOR and Gα15 (GenScript), was used to set up a sensitive assay system for detecting μ-opioid receptor activation. […] The assay was performed in the presence of an opioid antagonist, i.e., naloxone (25 nM), naltrexone (20 nM), samidorphan (10 nM), naloxonazine dihydrochloride (20 nM), β-funaltrexamine hydrochloride (20 nM), cyprodime hydrochloride (500 nM), or nalmefene (20 nM), in combination with compound 58, an antagonist to agonist allosteric modifier (AAM), to identify activation of the μ-opioid receptor.

mu-opioid receptor (MOR), sequence (P35372 whole entry): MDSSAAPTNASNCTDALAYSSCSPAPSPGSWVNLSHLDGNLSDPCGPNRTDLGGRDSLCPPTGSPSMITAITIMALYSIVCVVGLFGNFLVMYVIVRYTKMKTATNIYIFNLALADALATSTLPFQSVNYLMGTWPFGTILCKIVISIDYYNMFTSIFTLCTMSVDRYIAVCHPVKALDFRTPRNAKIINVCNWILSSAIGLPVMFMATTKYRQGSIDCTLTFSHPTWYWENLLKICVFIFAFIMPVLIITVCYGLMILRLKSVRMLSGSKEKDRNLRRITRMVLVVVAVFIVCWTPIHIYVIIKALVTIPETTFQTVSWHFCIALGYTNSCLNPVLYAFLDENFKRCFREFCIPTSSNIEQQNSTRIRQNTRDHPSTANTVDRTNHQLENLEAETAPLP

SMILES | AUC (CHO-K1/MOR/Gα15 cells) | EC50 (EC50, CHO-K1/MOR/Gα15 cells) [µM] | FLIPR Ca^2+ AUC | EC50 (read-out: FLIPR Ca^2+ EC50) [µM] | EC50 (CHO-K1/MOR/Gα15 cells, read-out: EC50) [µM]
Cc1cc(C(=O)OCC(F)(F)F)ccc1N1C(=O)CSC1c1ccc(F)cc1 (stereo not drawn) [Example 286] | more than 5000 | < 10 | 13001 | 9.2 | –
Cc1cc(C(=O)OCCN2CCCCC2)ccc1N1C(=O)CSC1c1ccc(F)cc1 (stereo not drawn) [Example 295] | – | – | 10426 | 2.8 | –
Cc1cc(C(=O)Nc2ccccc2)ccc1N1C(=O)CSC1c1ccc(F)cc1 (stereo not drawn) [Example 361] | more than 5000 | < 10 | 6128 | 8.8 | –
Cc1cc(C(=O)NS(=O)(=O)c2ccc(C#N)cc2)ccc1N1C(=O)CSC1c1ccc(F)cc1 (stereo not drawn) [Example 187] | – | – | 12927 | 3.3 | –
Cc1cc(N(C)C)ccc1N1C(=O)CSC1c1ccc(F)cc1 (stereo not drawn) [Example 53] | – | – | 6407 | 0.5 | –
CCOC(=O)c1ccc(N2C(=O)CSC2c2ccc(F)cc2)c(C)c1 (stereo not drawn) [Example 152] | more than 5000 | – | 14743 | 6.3 | < 10
Cc1cc(C(=O)NS(=O)(=O)N(C)C)ccc1N1C(=O)CSC1c1ccc(F)cc1 (stereo not drawn) [Example 174] | – | – | 12074 | 3.8 | –
Cc1ccc(Cl)cc1N1C(=O)CSC1c1ccc(F)cc1 (stereo not drawn) [Example 147] | more than 5000 | < 10 | 11516 | 3.2 | –
Cc1cc(C(=O)OC(C)(C)C)ccc1N1C(=O)CSC1c1ccc(F)cc1 (stereo not drawn) [Example 235] | – | – | 15203 | 6.8 | –
Cc1cc(C(=O)OCCOCc2ccccc2)ccc1N1C(=O)CSC1c1ccc(F)cc1 (stereo not drawn) [Example 258] | more than 5000 | < 10 | 6353 | 3.3 | –
Cc1cc(C#N)ccc1N1C(=O)CSC1c1ccc(F)cc1 (stereo not drawn) [Example 46] | – | < 10 | – | – | –
[2H]c1c([2H])c(C2SCC(=O)N2c2ccc(C(=O)O)cc2C)c([2H])c([2H])c1F (stereo not drawn) [Example 579, 4-{2-[4-Fluoro-2,3,5,6-d4-phenyl]-4-oxo-1,3-thiazolidin-3-yl}-3-methylbenzoic acid] | – | – | 14761 | 1.93 | –
Cc1cc(C2SCC(=O)N2c2ccc(C(=O)O)cc2C)ccc1F (stereo not drawn) [Example 68] | more than 5000 | < 10 | 7951 | 6.4 | –
COC(=O)COc1ccc(N2C(=O)CSC2c2ccc(F)cc2)c(C)c1 (stereo not drawn) [Example 93] | more than 5000 | < 10 | 11009 | 6.4 | –
Cc1cc(C(N)=O)ccc1N1C(=O)CSC1c1ccc(F)cc1 (stereo not drawn) [Example 329] | more than 5000 | < 10 | 13749 | 1.7 | –
N#Cc1ccc(N2C(=O)CSC2c2ccc(F)cc2)cc1 (stereo not drawn) [Example 37] | – | < 10 | – | – | –

SMILES | AUC (CHO-K1/MOR/Gα15 cells) | EC50 (EC50, CHO-K1/MOR/Gα15 cells) [µM] | FLIPR Ca^2+ AUC | EC50 (read-out: FLIPR Ca^2+ EC50) [µM] | EC50 (CHO-K1/MOR/Gα15 cells, read-out: EC50) [µM]
Cc1cc(C(=O)OCCC#N)ccc1N1C(=O)CSC1c1ccc(F)cc1 (stereo not drawn) [Example 269] | – | – | 14183 | 12.3 | –
Cc1c(N2C(=O)CSC2c2cccc(F)c2)c(=O)n(-c2ccccc2)n1C (stereo not drawn) [Example 404] | more than 5000 | – | 7127 | 21.8 | –
Cc1cc(C(=O)NO)ccc1N1C(=O)CSC1c1ccc(F)cc1 (stereo not drawn) [Example 219] | – | – | 14222 | 6.4 | –
COc1cc(CNC(=O)c2ccc(N3C(=O)CSC3c3ccc(F)cc3)c(C)c2)cc(OC)c1 (stereo not drawn) [Example 380] | more than 5000 | < 10 | 10013 | 8.2 | –
Cc1cc(C(=O)NS(=O)(=O)c2ccc(Cl)cc2F)ccc1N1C(=O)CSC1c1ccc(F)cc1 (stereo not drawn) | more than 5000 | < 10 | 15287 | 0.1 | –
Cc1ccc(F)cc1N1C(=O)CSC1c1cc(F)cc(F)c1 (stereo not drawn) [Example 122] | more than 5000 | – | 7010 | 3.6 | –
Cc1cc(C(=O)OCCCc2ccccn2)ccc1N1C(=O)CSC1c1ccc(F)cc1 (stereo not drawn) [Example 263] | more than 5000 | < 10 | 14918 | 9.2 | –
Cc1cc(C(=O)O)ccc1N1C(=O)CSC1c1cc(F)cc(F)c1 (stereo not drawn) [Example 64] | more than 5000 | < 10 | 9368 | 6 | –
COC(=O)Cc1ccc(N2C(=O)CSC2c2ccc(F)cc2)c(C)c1 (stereo not drawn) [Example 96] | more than 5000 | < 10 | 9657 | 10 | –
Cc1cc(C(=O)NC2CCCC2)ccc1N1C(=O)CSC1c1ccc(F)cc1 (stereo not drawn) [Example 338] | – | < 10 | 9215 | 4.4 | –
Cc1cc(C(=O)NCCc2ccccc2F)ccc1N1C(=O)CSC1c1ccc(F)cc1 (stereo not drawn) [Example 383] | – | – | 5504 | 6.9 | –
Cc1c(N2C(=O)CSC2c2ccc(F)cc2)c(=O)n(-c2ccccc2)n1C (stereo not drawn) [Example 411] | more than 5000 | – | 8099 | 20 | –
COCCS(=O)(=O)NC(=O)c1ccc(N2C(=O)CSC2c2ccc(F)cc2)c(C)c1 (stereo not drawn) [Example 593, 4-[2-(4-Fluorophenyl)-4-oxo-1,3-thiazolidin-3-yl]-N-[(2-methoxyethyl)sulfonyl]-3-methylbenzamide] | more than 5000 | < 10 | 11543 | 2.21 | –
CC(=O)COC(=O)c1ccc(N2C(=O)CSC2c2ccc(F)cc2)c(C)c1 (stereo not drawn) [Example 268] | – | – | 12787 | 3.8 | –
Cc1cc(C(=O)NS(=O)(=O)C2CC2)ccc1N1C(=O)CSC1c1ccc(F)cc1 (stereo not drawn) [Example 169] | more than 5000 | < 10 | 13189 | 3 | –
CONC(=O)c1ccc(N2C(=O)CSC2c2ccc(F)cc2)c(C)c1 (stereo not drawn) | – | – | 14236 | 4.2 | –
